Laboratory results from patent publication US12552748B2, “Pyridine (thio)amides as fungicidal compounds” (Bayer Aktiengesellschaft, priority 2020, dated 2026).
Marks after values point to notes of the source that are not given here.

Assay: physchem
Type: physicochemical
Summary of the method: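 Reversed-phase HPLC per EEC directive 79/831 Annex V.A8, calibrated with straight-chain alkan-2-ones (C3–C16) of known Log P via linear interpolation of retention times. Lambda-max from UV spectra 200–400 nm at chromatographic peaks.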

Row | Compound | LogP
1 | C#Cc1cc(C(=O)NCCc2ccc(C)cc2C)c(Oc2cccc(C(F)(F)F)c2)cn1 [Compound I-191] | 4.34^[a]
2 | O=C(NCCc1ccc(C(F)(F)F)cc1Cl)c1cc(Cl)ncc1Oc1cccc(C(F)(F)F)c1 [Compound I-192] | 4.95^[a]
3 | O=C(NCC(F)(F)c1ccc(C2CC2)cc1Cl)c1cc(Cl)ncc1Oc1cccc(C2CC2)c1 [Compound I-193] | 5.45^[a]
4 | Cc1ccc(CCNC(=O)c2cc(C3CC3)ncc2Oc2cccc(C(F)(F)F)c2)c(C)c1 [Compound I-194] | 4.97^[a]
5 | COC(=O)Cc1cccc(Oc2cnc(Cl)cc2C(=O)NCCc2ccc(C)cc2C)c1 [Compound I-196] | 4.17^[a]
6 | O=C(NCCc1ccc2[nH]cnc2c1)c1cc(Cl)ncc1Oc1cccc(C(F)(F)F)c1 [Compound I-197] | 1.82^[a]
7 | C[Si](C)(C)C#Cc1ccc(C(F)(F)CNC(=O)c2cc(Cl)ncc2Oc2cccc(C(F)F)c2)c(Cl)c1 [Compound I-198] | 5.97^[a]
8 | COc1c(Cl)ncc(Oc2cccc(C(F)(F)F)c2)c1C(=O)NCC(F)(F)c1ccc(C)cc1C [Compound I-199] | 4.74^[a]
9 | COc1c(Cl)ncc(Oc2cccc(Cl)c2)c1C(=O)NCC(F)(F)c1ccc(C)cc1C [Compound I-200] | 4.62^[a]
10 | Cc1ccc(C(F)(F)CNC(=O)c2cc(Cl)ncc2Oc2cccc(C(F)(F)F)c2)c(Cl)c1 [Compound I-201] | 4.66^[a]
11 | Cc1cc(C(=O)NCC(F)c2ccc(Cl)cc2Cl)c(Oc2cccc(C(F)(F)F)c2)cn1 (stereo not drawn) [Compound I-202] | 4.18^[a]
12 | COCCc1ccc(C(F)(F)CNC(=O)c2cc(Cl)ncc2Oc2cccc(C(F)F)c2)c(Cl)c1 [Compound I-203] | 4.14^[a]
13 | Cc1ccc(CCNC(=O)c2cc(-c3ccncc3Cl)ncc2Oc2cccc(C(F)(F)F)c2)c(C)c1 [Compound I-204] | 4.61^[a]
14 | Cc1cc(C(=O)NCC(F)c2ccc(Cl)cc2C)c(Oc2cccc(C3CC3)c2F)cn1 (stereo not drawn) [Compound I-205] | 4.37^[a]
15 | Cc1ccc(CCNC(=O)c2cc(-c3cn[nH]c3)ncc2Oc2cccc(C(F)(F)F)c2)c(C)c1 [Compound I-206] | 3.63^[a]
16 | N#CN(CCc1ccc(Cl)cc1)C(=O)c1cc(Cl)ncc1Oc1cccc(C(F)(F)F)c1 [Compound I-207] | 4.89^[a]
17 | Cc1ccc(CCNC(=O)c2cc(C(F)(F)F)ncc2Oc2cccc(C(F)(F)F)c2)c(C)c1 [Compound I-208] | 5.04^[a]
18 | COc1cccc(Oc2cnc(C)cc2C(=O)NCC(F)c2ccc(C)cc2Cl)c1 (stereo not drawn) [Compound I-209] | 3.62^[a]
19 | O=C(NCC(F)(F)c1ccc(Br)cc1Cl)c1cc(Cl)ncc1Oc1cccc(C2CC2)c1F [Compound I-210] | 5.31^[a]
20 | O=C(NCC(F)(F)c1cc(Cl)sc1Cl)c1cc(Cl)ncc1Oc1cccc(C(F)(F)F)c1 [Compound I-211] | 5.04^[a]
21 | CCc1cc(C(=O)NCC(F)(F)c2ccc(C)cc2C)c(Oc2cccc(C3CC3)c2)cn1 [Compound I-212] | 4.90^[a]
22 | O=C(NCCc1csc2ccc(Cl)cc12)c1cc(Cl)ncc1Oc1cccc(C(F)(F)F)c1 [Compound I-213] | 5.00^[a]
23 | Cc1ccc(CCNC(=O)c2cc(Cl)ncc2Oc2cccc(C3CC3)c2)c(C)c1 [Compound I-214] | 5.14^[a]
24 | N#Cc1nc(Cl)cc(C(=O)NCC(F)(F)c2ccc(Br)cc2Cl)c1Oc1cccc(C(F)(F)F)c1 [Compound I-215] | 4.81^[a]

Row | Compound | LogP
25 | O=C(NCC(F)(F)c1ccc(C2CC2)cc1Cl)c1cc(C2CC2)ncc1Oc1cccc(C2CC2)c1F [Compound I-216] | 5.54^[a]
26 | CNc1c(Cl)ncc(Oc2cccc(C(F)(F)F)c2)c1C(=O)NCC(F)(F)c1ccc(C)cc1C [Compound I-217] | 4.44^[a]
27 | CNc1ncc(Oc2cccc(C(F)(F)F)c2)c(C(=O)NCC(F)(F)c2ccc(C)cc2C)c1I [Compound I-218] | 4.55^[a]
28 | COc1cccc(Oc2cnc(C)cc2C(=O)NCC(F)c2ccc(Cl)cc2Cl)c1 (stereo not drawn) [Compound I-219] | 3.75^[a]
29 | Cc1cc(C(=O)NCC(F)c2ccc(Cl)cc2Cl)c(Oc2cccc(C3CC3)c2)cn1 (stereo not drawn) [Compound I-220] | 4.44^[a]
30 | N#Cc1nc(Cl)cc(C(=O)NCC(F)(F)c2ccc(Cl)cc2)c1Oc1cccc(C(F)(F)F)c1 [Compound I-221] | 4.39^[a]
31 | Cc1ccc(C(F)(F)CNC(=O)c2cc(Cl)ncc2Oc2cccc(C(F)(F)F)c2I)c(C)c1 [Compound I-222] | 5.08^[a]
32 | Cc1ccc(CCNC(=O)c2cc(Cl)ncc2Oc2cnc3ccccc3c2)c(C)c1 [Compound I-223] | 3.34^[a]
33 | Cc1ccc(C(F)CNC(=O)c2cc(C)ncc2Oc2cccc(C(F)F)c2)c(Cl)c1 (stereo not drawn) [Compound I-224] | 3.63^[a]
34 | Cc1ccc(CCNC(=O)c2cc(Cl)nc(C#N)c2Oc2cccc(C(F)(F)F)c2)c(C)c1 [Compound I-225] | 4.58^[a]
35 | Cc1ccc(CCNC(=O)c2cc(Cl)ncc2Oc2cccc(F)c2F)c(C)c1 [Compound I-226] | 4.38^[a]
36 | Cc1ccc(CCNC(=O)c2cc(Cl)ncc2Oc2cnc3c(c2)CCC3)c(C)c1 [Compound I-227] | 3.35^[a]
37 | Cc1ccc(CCNC(=O)c2cc(Cl)ncc2Oc2cccc(C=O)c2)c(C)c1 [Compound I-228] | 3.79^[a]
38 | Cc1ccc(CCNC(=O)c2cc(Cl)ncc2Oc2cccc(OC(F)(F)F)c2F)c(C)c1 [Compound I-229] | 4.95^[a]
39 | Cc1ccc(C(F)(F)CNC(=O)c2c(Oc3cccc(C(F)(F)F)c3)cnc(Cl)c2N2CCCC2)c(C)c1 [Compound I-230] | 5.49^[a]
40 | Cc1ccc(C(F)(F)CNC(=O)c2c(Oc3cccc(C(F)(F)F)c3)cnc(N3CCCC3)c2I)c(C)c1 [Compound I-231] | 5.57^[a]
41 | Cc1ccc(CCNC(=O)c2cc(Cl)ncc2Oc2ccc3c(c2)CCC3)c(C)c1 [Compound I-232] | 5.49^[a]
42 | Cc1ccc(CCNC(=O)c2cc(Cl)ncc2Oc2cc(F)c(F)cc2F)c(C)c1 [Compound I-233] | 4.42^[a]
43 | Cc1ccc(CCNC(=O)c2cc(C)ncc2Oc2cccc(Cl)c2)c(C)c1 [Compound I-234] | 3.96^[a]
44 | COCCOc1cccc(Oc2cnc(Cl)cc2C(=O)NCCc2ccc(C)cc2C)c1 [Compound I-235] | 4.27^[a]
45 | Cc1cc(C(=O)NCC(F)(F)c2ccc(Br)cc2Cl)c(Oc2cccc(C(F)F)c2)cn1 [Compound I-236] | 3.74^[a]
46 | CSc1cccc(Oc2cnc(Cl)cc2C(=O)NCCc2ccc(C)cc2C)c1F [Compound I-237] | 4.69^[a]
47 | Cc1ccc(CCNC(=O)c2cc(Cl)ncc2Oc2cccc(Cl)c2)c(C)c1 [Compound I-238] | 4.74^[a]
48 | Cc1ccc(C(F)(F)CNC(=O)c2cc(C3CC3)ncc2Oc2cccc(C3CC3)c2)c(C)c1 [Compound I-239] | 5.41^[a]

Row | Compound | LogP
49 | Cc1ccc(CCNC(=O)c2cc(Cl)ncc2Oc2ccc(C(F)(F)F)cc2)c(C)c1 [Compound I-240] | 4.77^[a]
50 | O=C(NCC(F)(F)c1ccc(Br)cc1Cl)c1cc(Cl)ncc1Oc1cccc(Cl)c1 [Compound I-241] | 4.95^[a]
51 | Cc1ccc(CCNC(=O)c2cc(C)ncc2Oc2cccc(C3CC3)c2)c(C)c1 [Compound I-242] | 4.27^[a]
52 | Cc1ccc(CCNC(=O)c2cc(C3CC3)ncc2Oc2cccc(C3CC3)c2F)c(C)c1 [Compound I-243] | 5.32^[a]
53 | Cc1ccc(CCNC(=O)c2cc(Cl)ncc2Oc2cc(F)cc(Cl)c2)c(C)c1 [Compound I-244] | 4.82^[a]
54 | Cc1ccc(CCNC(=O)c2cc(Cl)nc(Cl)c2Oc2cccc(C(F)(F)F)c2)c(Cl)c1 [Compound I-245] | 5.17^[a]
55 | Cc1ccc(C(F)(F)CNC(=O)c2cc(C3CC3)ncc2Oc2cccc(C3CC3)c2F)c(C)c1 [Compound I-246] | 5.36^[a]
56 | Cc1ccc(C(F)(F)CNC(=O)c2cc(Cl)nc(Cl)c2Oc2cccc(C(F)(F)F)c2)c(C)c1 [Compound I-247] | 5.16^[a]
57 | CSc1cccc(Oc2cnc(Cl)cc2C(=O)NCCc2ccc(C)cc2C)c1 [Compound I-248] | 4.76^[a]
58 | O=C(NCC(F)(F)c1ccc(Br)cc1Cl)c1cc(Cl)ncc1Oc1cccc(C(F)F)c1 [Compound I-249] | 4.54^[a]
59 | Cc1ccc(CCNC(=O)c2cc(Cl)ncc2Oc2ccc(Cl)c(Cl)c2)c(C)c1 [Compound I-250] | 5.08^[a]
60 | COc1cccc(Oc2cnc(Cl)cc2C(=O)NCCc2ccc(C)cc2C)c1 [Compound I-252] | 4.42^[a]
61 | O=C(NCC(F)c1ccc(Cl)cc1Cl)c1cc(C2CC2)ncc1Oc1cccc(C2CC2)c1 (stereo not drawn) [Compound I-253] | 5.42^[a]
62 | Cc1ccc(CCNC(=O)c2cc(Cl)ncc2Oc2ccc(Cl)c(C(F)(F)F)c2)c(C)c1 [Compound I-254] | 5.09^[a]
63 | Cc1cccc(Oc2cnc(C)cc2C(=O)NCCc2ccc(C)cc2C)c1 [Compound I-255] | 3.86^[a]
64 | Cc1ccc(CCNC(=O)c2cc(Cl)ncc2Oc2cccc(C3CCC3)c2)c(C)c1 [Compound I-257] | 5.84^[a]
65 | Cc1ccc(CCNC(=O)c2cc(Cl)ncc2Oc2cccc(-c3ccccn3)c2)c(C)c1 [Compound I-258] | 4.16^[a]
66 | CCOc1cccc(Oc2cnc(Cl)cc2C(=O)NCCc2ccc(C)cc2C)c1 [Compound I-259] | 4.85^[a]
67 | O=C(NCC(F)(F)c1ccc(Cl)cn1)c1cc(Cl)ncc1Oc1cccc(C(F)(F)F)c1 [Compound I-260] | 3.99^[a]
68 | Cc1ccc(CCNC(=O)c2cc(Cl)ncc2Oc2cccc(S(C)(=O)=O)c2)c(C)c1 [Compound I-261] | 3.38^[a]
69 | Cc1ccc(CCNC(=O)c2cc(C)ncc2Oc2cccc(C3CC3)c2F)c(C)c1 [Compound I-262] | 4.32^[a]
70 | Cc1ccc(CCNC(=O)c2cc(Cl)ncc2Oc2c(F)ccc(C)c2F)c(C)c1 [Compound I-264] | 4.76^[a]
71 | O=C(NCC(F)(F)c1ccc(-c2ccncc2Cl)cc1Cl)c1cc(Cl)ncc1Oc1cccc(C(F)(F)F)c1 [Compound I-266] | 4.51^[a]
72 | COCCc1ccc(C(F)(F)CNC(=O)c2cc(CCOC)ncc2Oc2cccc(C(F)F)c2)c(Cl)c1 [Compound I-267] | 3.74^[a]
